“And” between values parts separate entries of the source, which are not always exact repeats. Equal entries are not always repeated. Where two headings read alike, the source gives them in different places.
What was measured:
[1] = tested on: S. aureus ATCC 29213; assay: Minimum inhibitory concentration, broth microdilution; assay type: cell-based; settings: Staphylococcus aureus, ATCC29213; compound alone; S. aureus ATCC 29213; CAMHB, 18 h; read-out: MIC
Procedure: (§1) The compounds were then analyzed for antibiotic repotentiation activity. […] The tested strains included USA300, which is a common and particularly virulent strain of community-acquired MRSA.

[2] = tested on: S. aureus ATCC 43300 (MRSA); assay: as above; assay type: cell-based, Staphylococcus aureus; settings: Staphylococcus aureus; compound alone; S. aureus ATCC 43300 (MRSA); CAMHB, 18 h; read-out: MIC
Procedure: as §1

[3] = tested on: S. aureus USA300 (MRSA); assay: as above; assay type: cell-based, Staphylococcus aureus; settings: Staphylococcus aureus; compound alone; S. aureus USA300 (MRSA); CAMHB, 18 h; read-out: MIC
Procedure: as §1

[4] = tested on: S. aureus ATCC 29213; assay: Antibiotic repotentiation (antibiotic MIC with/without compound); assay type: cell-based, Staphylococcus aureus; settings: for Oxacillin MIC: ATCC 29213
Procedure: (§2) The overnight culture was diluted into fresh CAMHB to a concentration of 5×10^5 CFU/ml. […] On the same plate, a standard microdilution MIC with the tested antibiotics and no added compound was also performed to compare the antibiotic MIC in the presence and absence of compound. […] Fold reductions were calculated by dividing the MIC of the antibiotic without compound by the MIC of the antibiotic in the presence of compound.
as §1

[5] = tested on: S. aureus USA300 (MRSA); assay: as above; assay type: cell-based, Staphylococcus aureus; settings: for MIC of antibiotic: MRSA USA300
Procedure: as §2, §1

[6] = tested on: S. epidermidis 49461; assay: Antibiotic repotentiation (oxacillin MIC with/without compound); assay type: cell-based, Staphylococcus epidermidis
Procedure: as §2
Antibiotic potentiation in S. epidermidis was also investigated.

[7] = tested on: MRSA; assay: Growth curves; assay type: cell-based, Staphylococcus aureus; settings: MRSA in CAMHB; for effect on cell density (OD 600 nm) after 24 hours: single treatment: oxacillin 1 μg/mL alone or amoxapine 150 μM alone
Procedure: The overnight culture was diluted into fresh CAMHB to a concentration of 5×10^5 CFU/ml. The cell suspension (3 mL) was aliquoted into sterile culture tubes and compound was added to achieve the desired concentrations. An untreated aliquot served as the control. 200 μl of each suspension or of the untreated control was aliquoted into a flat-bottomed microtiter plate. The plate was maintained at 37° C. with shaking and absorbance readings (600 nm) were recorded every 30 minutes for 24 hours.
MRSA was grown in cation-adjusted Mueller-Hinton broth (CAMHB). […] The optical density of the cultures at 600 nm was measured every 2 hours for 8 hours and again at 24 hours.

[8] = tested on: blaI mRNA; assay: RT-qPCR mRNA levels; assay type: cell-based, Staphylococcus aureus (MRSA)
Procedure: (§3) Triplicate cultures of each condition were briefly centrifuged and cell pellets were stored at −80° C. Pellets were resuspended in 100 uL of lyphostaphin (1 mg/mL) and incubated at room temperature for 10 minutes. Next, lysates were subjected to a Qiashredder column and RNA was purified with RNeasy columns according to the manufacturer's protocol (Qiagen). An on-column DNase step was also included. Total RNA was quantified and purity was assessed with a Nanodrop spectrophotometer (Thermo Scientific). RNA integrity was visualized by agarose gel electrophoresis using GelRed (Phenix) and a ChemiDoc MP (BioRad).
(§4) 200 ng of total RNA was reverse transcribed using random primers, according to the manufacturer's protocol (BioRad select cDNA synthesis kit). Minus reverse transcriptase controls were prepared for each sample. Next, duplicate qPCR reactions were performed for each cDNA template using SYBR green according to the manufacturer's protocol (BioRad SYBR Green Supermix). Primer sequences are found in Supporting Information. Those that the authors designed used NCBI Primer Blast to specify the annealing temperatures, length, location, and analyze specificity and secondary structure. All reactions were run on a StepOne thermal cycler (Applied Biosystems). Cycling parameters were as follows: 95° C. for 10 minutes, 40 cycles of 95° C. for 15 seconds followed by 60° C. for 1 minute. Specificity of each primer pair was assessed with melt curve analyses and agarose gel electrophoresis. The efficiency of each primer pair was calculated using results from calibration curves generated in Microsoft Excel. Contaminating genomic DNA levels were calculated using the comparative Ct method. Gene expression levels relative to 16S rRNA were calculated using a relative quantification model.^17 Statistical significance was determined by unpaired student's t tests. All calculations were performed using Microsoft Excel.
(§5) See Blazquez, B. et al., “Regulation of the expression of the beta-lactam antibiotic-resistance determinants in methicillin-resistant Staphylococcus aureus (MRSA),” Biochemistry 2014, 53 (10), 1548; Staude, M. W. et al., “Investigation of signal transduction routes within the sensor/transducer protein BlaR1 of Staphylococcus aureus,” Biochemistry 2015, 54 (8), 1600; Thumanu, K., et al., “Discrete steps in sensing of beta-lactam antibiotics by the BlaR1 protein of the methicillin-resistant Staphylococcus aureus bacterium,” Proc Natl Acad Sci USA 2006, 103 (28), 10630, which are incorporated herein by reference in their entireties.

[9] = tested on: blaZ mRNA; assay: RT-qPCR mRNA levels; assay type: cell-based, Staphylococcus aureus (MRSA)
Procedure: as §3, §4, §5

[10] = tested on: mecA mRNA; assay type: cell-based, Staphylococcus aureus (MRSA); settings: co-treatment amoxapine and oxacillin vs oxacillin alone
Procedure: as §3
(§6) 200 ng of total RNA was reverse transcribed using random primers, according to the manufacturer's protocol (BioRad select cDNA synthesis kit). Minus reverse transcriptase controls were prepared for each sample. […] Specificity of each primer pair was assessed with melt curve analyses and agarose gel electrophoresis. The efficiency of each primer pair was calculated using results from calibration curves generated in Microsoft Excel. Contaminating genomic DNA levels were calculated using the comparative Ct method. Gene expression levels relative to 16S rRNA were calculated using a relative quantification model.^17 Statistical significance was determined by unpaired student's t tests. […]

[11] = tested on: mecI mRNA; assay type: cell-based, Staphylococcus aureus (MRSA); settings: co-treatment amoxapine and oxacillin vs oxacillin alone
Procedure: as §3, §6

[12] = tested on: pbp2 mRNA; assay: RT-qPCR mRNA levels; assay type: cell-based, Staphylococcus aureus (MRSA); settings: co-treatment amoxapine and oxacillin vs oxacillin alone
Procedure: as §3, §6

[13] = biological target: β-lactamase, MSSA ATCC 29213 (Staphylococcus aureus, UniProt P00807); settings: MSSA 29213
Procedure: For whole cell nitrocefin assays, bacteria was cultured overnight in CAMHB at 37° C. with shaking. The overnight culture was subcultured 1:100 in fresh CAMHB and grown at 37° C. with shaking to mid-log phase (OD600=0.4-0.6). The culture was adjusted to an OD600 of 0.2 in fresh CAMHB. […] These suspensions were incubated at 37° C. with shaking for thirty minutes. The suspensions were adjusted to an OD600 of 0.132 in phosphate buffered saline (PBS, pH 7, 900 μl). A 100 μl of a stock solution of nitrocefin (500 mg/ml in PBS) was added to these suspensions and mixed. The nitrocefin-bacteria suspensions (100 μl) were added to the wells of a clear 96-well polystyrene microtiter plate. A 50 mg/ml solution of nitrocefin in PBS served as a blank. Using BioTek Synergy H1 microplate reader maintained at 37° C., the absorbance at 486 nm was recorded every 5 minutes for 2 hours.
The known β-lactamase inhibitor sulbactam was used as a positive control. Again, all assays were run in triplicate and each data point represents the average of three data points.

[14] = tested on: S. aureus 43300 (MRSA); assay: Antibiotic repotentiation (antibiotic MIC with/without compound); assay type: cell-based, Staphylococcus aureus
Procedure: as §2, §1

[15] = tested on: S. aureus NR-49120 (VRSA); assay: as above; assay type: cell-based, Staphylococcus aureus; settings: VRSA NR-49120
Procedure: as §2

[16] = tested on: S. aureus USA100 (MRSA); assay: as above; assay type: cell-based, Staphylococcus aureus; settings: for MIC of antibiotic: MRSA USA100
Procedure: as §2

[17] = co-treatment amoxapine and oxacillin vs oxacillin alone
[18] = treatment alone, compared to untreated cells
[19] = oxacillin treatment, relative to 16S rRNA

Sequence of β-lactamase, MSSA ATCC 29213 (P00807 25-281): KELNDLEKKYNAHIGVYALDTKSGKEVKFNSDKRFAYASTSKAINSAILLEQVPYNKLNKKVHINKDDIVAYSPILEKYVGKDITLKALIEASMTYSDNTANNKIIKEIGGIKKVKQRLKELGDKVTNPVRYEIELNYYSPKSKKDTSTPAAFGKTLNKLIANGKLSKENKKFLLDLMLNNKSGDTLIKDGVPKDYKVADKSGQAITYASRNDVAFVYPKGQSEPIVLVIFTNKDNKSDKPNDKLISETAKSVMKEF

Clc1ccc2c(c1)C(N1CCNCC1)=Nc1ccccc1O2 [Amoxapine, 2-chloro-11-(1-piperazinyl)dibenz[b,f][1,4]oxazepine]
MIC [1]: 600 µM | MIC [2]: 600 µM | MIC [3]: 600 µM | Oxacillin MIC ([4]; +75 μM compound): 0.25 µg/mL | Oxacillin MIC ([4]; +150 μM compound): 0.125 µg/mL | Oxacillin MIC ([5]; +75 μM compound, USA300 (MRSA)): 16 µg/mL | Oxacillin MIC ([5]; +150 μM compound, USA300 (MRSA)): 2 µg/mL | Oxacillin MIC ([6]; +75 μM compound, S. epidermidis 49461): 4 µg/mL | effect on cell density (OD 600 nm) throughout the experiment ([7]; combination of oxacillin (1 μg/mL) and amoxapine (150 μM), 24 h): potent inhibition of cell density | effect on cell density (OD 600 nm) after 24 hours [7]: negligible effect | reduction in blaI levels [8, 17]: 2.2 fold | effect on mRNA levels ([9]; amoxapine alone vs untreated control (data not shown)): no significant effect | reduction in blaZ levels [9, 17]: 3.0 fold | reduction in mecA mRNA levels [10]: 4.5 fold | reduction in mecI mRNA levels [11]: 3.0 fold | effect on mRNA levels of pbp2 [12]: no significant effect | effect on β-lactamase activity (nitrocefin hydrolysis) ([13]; oxacillin in combination with amoxapine): little effect | effect on β-lactamase activity (nitrocefin hydrolysis) [13, 18]: no effect

Cc1onc(-c2ccccc2)c1C(=O)N[C@@H]1C(=O)N2[C@@H]1SC(C)(C)[C@@H]2C(=O)O [Oxacillin]
MIC of antibiotic ([14]; +Amoxapine (150 μM), S. aureus 43300 (MRSA)): 2 µg/mL | MIC of antibiotic ([14]; +Loratadine 25 μM, MRSA 43300): 4 µg/mL | MIC of antibiotic ([14]; +Loratadine 50 μM, MRSA 43300): 1 µg/mL | MIC of antibiotic ([14]; antibiotic alone, no compound, S. aureus 43300 (MRSA)): 32 µg/mL and 16 µg/mL | MIC of antibiotic ([14]; antibiotic alone, S. aureus ATCC 43300 (MRSA)): 32 µg/mL | MIC ([4]; Staphylococcus aureus, ATCC29213, read-out: Oxacillin MIC): 0.25 µg/mL | MIC of antibiotic ([5]; +Loratadine 25 μM): 2 µg/mL | MIC of antibiotic ([5]; +Loratadine 50 μM): 0.5 µg/mL | MIC ([5]; Staphylococcus aureus, read-out: Oxacillin MIC, oxacillin alone, S. aureus USA300 (MRSA)): 32 µg/mL | MIC of antibiotic ([5]; antibiotic alone): 32 µg/mL | Oxacillin MIC ([5]; oxacillin alone, S. aureus USA300 (MRSA)): 64 µg/mL | MIC of antibiotic ([15]; +Loratadine 25 μM): 64 µg/mL | MIC of antibiotic ([15]; +Loratadine 50 μM): 16 µg/mL | MIC of antibiotic ([16]; +Loratadine 50 μM): 0.25 µg/mL | MIC ([16]; Staphylococcus aureus, read-out: Oxacillin MIC): 512 µg/mL | MIC of antibiotic ([16]; antibiotic alone): 256 µg/mL | MIC ([6]; Staphylococcus epidermidis, 49461, 18 h, read-out: Oxacillin MIC): 16 µg/mL | effect on cell density (OD 600 nm) after 24 hours [7]: negligible effect | increase in blaI levels [8, 19]: 13 fold | increase in blaZ mRNA [9, 19]: 38 fold | effect on β-lactamase activity (nitrocefin hydrolysis) [13, 18]: little effect

Source: patent US12115208B2, “Small-molecule adjuvants for antibiotics to address antibiotic resistance” (HIGH POINT UNIVERSITY, priority 2017, dated 2024)
